Experiment: gradient 5% acetonitrile 3 min, to 50% in 2 min, to 85% in 15 min, held 3 min, 100 µL/min
Settings: column: Zorbax Extend-C18 2.1 x 50 mm; eluents: water / acetonitrile, 0.1% formic acid
Summary of the method: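 Retention times come from adduct peaks that were picked computationally and then checked by hand. The standards, pure and pooled in mixtures of ~100 molecules, were run on a Zorbax Extend-C18 column (2.1 × 50 mm, 1.8 μm) at 100 μL/min with water and acetonitrile, each with 0.1% formic acid. Detection was by quadrupole time-of-flight mass spectrometry in positive and negative ionization mode, with a dead volume of 40 μL and a dwell volume of 900 μL.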

Row | RP-LC retention time | SMILES
1 | 809 s | COc1ccc(NC(=O)N2CCCC2c2nc(-c3ccccc3OC)no2)c(C)c1 (stereo unspecified)
2 | 823 s | Cc1ccc(C2Cn3cnc(C(=O)N4CCC(C(=O)NCc5ccccc5Cl)CC4)c3CO2)cc1 (stereo unspecified)
3 | 728 s | Cc1oc2c(C)c3oc(=O)c(CCC(=O)N4CCN(c5ccccn5)CC4)c(C)c3cc2c1C
4 | 818 s | CC1=C(c2ccccc2)S(=O)(=O)N=C1N1CCCN(C(=O)NCCC(C)C)CC1
5 | 620 s | Cc1nnc(N2CCC(C(=O)N3CCOCC3)CC2)c2nn(-c3ccccc3)c(C)c12
6 | 1010 s | Cc1cc(C)cc(NC(=O)Cn2nc(N3CCCC3)c3ccccc3c2=O)c1
7 | 598 s | O=C(c1ccco1)N1CCN(c2nc(N3CCOCC3)c3n[nH]nc3n2)CC1
8 | 705 s | Cc1cc(C)n2nc(SCC(=O)N(C)c3ccccc3)nc2n1
9 | 600 s | CCN1CCN(c2ccc(NC(=O)c3ccc(C)c(N4CCCC4=O)c3)cn2)C1=O
10 | 691 s | CC(C)(C)OC(=O)N1CCN(c2ncnc(N)c2[N+](=O)[O-])CC1
11 | 884 s | COc1ccccc1CNC(=O)Cn1nc(C)c2sc(-c3ccccc3)nc2c1=O
12 | 913 s | CC(C)c1ccc(-n2nc(N3CCN(C(=O)c4cccs4)CC3)ccc2=O)cc1
13 | 705 s | Cc1oc(-c2[nH]ncc2C(=O)N2CCCC2)cc1S(=O)(=O)Nc1ccc(F)cc1
14 | 943 s | Cc1ccc(-c2cc3n(n2)CCCN(C(=O)CCC(=O)c2ccc(F)cc2)C3)cc1
15 | 718 s | CCOC(=O)COc1ccc2c(c1)C(=O)CC1(CCN(C(C)=O)CC1)O2
16 | 774 s | CCOc1ccc(NC(=O)Cn2nc(N3CCOCC3)c3ccccc3c2=O)cc1
17 | 669 s | O=C(Nc1nc(CC(=O)N2CCN(c3ncccn3)CC2)cs1)C1CCCC1
18 | 846 s | Cn1cc(C2=CCN(C(=O)c3cc(F)cc(F)c3)CC2)c2cccnc21
19 | 688 s | O=C(Nc1cc(F)cc(F)c1)N1CCCN(C2CCN(Cc3ccc(F)cc3)C2=O)CC1 (stereo unspecified)
20 | 681 s | Cc1ccc(CNC(=O)c2nsc(C(=O)N3CCN(c4ccccn4)CC3)c2N)cc1
21 | 692 s | Cc1oc2c(c1C(=O)N1CCN(c3cccc(C(F)(F)F)c3)CC1)C1=NCCN1C=N2
22 | 824 s | COc1ccc(CNC(=O)c2c(C)oc3ccn(C)c(=O)c23)cc1
23 | 722 s | CCCNC(=O)N1CCN(Cc2nc3cc(-c4ccccc4)ccc3o2)CC1

The next lines start with the molecule.

Row | SMILES | RP-LC retention time
24 | O=C(NCc1ccco1)c1cnn2c(-c3ccc(Cl)cc3)ccnc12 | 945 s
25 | COc1cc(CN2CCCC2c2cc(C)on2)cc(OC)c1O (stereo unspecified) | 582 s
26 | O=c1[nH]cnc2scc(-c3ccc(Cl)cc3)c12 | 734 s
27 | CCCCCNC(=O)c1sc2ncccc2c1-n1cccc1 | 1080 s
28 | Cn1cc(CN2CC(F)(F)C[C@H]2COc2ccncc2)c2ccccc21 | 634 s
29 | CCOc1ccc(NC(=O)C2CCN(S(=O)(=O)c3ccc4c(c3)sc(=O)n4CC)CC2)cc1 | 924 s
30 | COc1ccc(NC(=O)c2cc(C(C)C)n3nccc3n2)c(C)c1 | 1250 s
31 | Cn1c(=O)c2c(-c3ccc(F)cc3)c(C#N)c(N)nc2n(C)c1=O | 757 s
32 | COC1C(=O)N(CC2CC2)C12CCN(S(=O)(=O)c1cccc3cccnc13)CC2 (stereo unspecified) | 790 s
33 | CCc1csc(-c2ccc(S(=O)(=O)NC(CC)c3cccs3)s2)n1 (stereo unspecified) | 1150 s
34 | CCC(C)NS(=O)(=O)c1cc(-c2nnc(-c3ccc(OC)c(OC)c3)o2)ccc1C (stereo unspecified) | 938 s
35 | O=C(CNC(=O)c1ccccc1)Nc1nc2ccccc2[nH]1 | 598 s
36 | CCOc1ccc2nc(NC(=O)c3cc(=O)c(OCc4ccccc4)cn3C)sc2c1 | 741 s
37 | CCc1nnc2ccc(-c3noc(-c4cccc(F)c4)n3)cn12 | 936 s
38 | COc1ccc(/C=C2\CCCc3ccccc3C2=O)cc1 | 1140 s
39 | COc1ccccc1CNC(=O)C1(c2ccc(NS(C)(=O)=O)cc2)CCCCC1 | 893 s
40 | O=c1c2sccc2n(Cc2nc(-c3cccc(Br)c3)no2)c(=O)n1Cc1ccccc1 | 1110 s
41 | O=C1CC(c2nc(-c3cccnc3)no2)CN1c1ccc2c(c1)OCO2 (stereo unspecified) | 728 s
42 | O=c1ccc(-c2nc(-c3cccc(Cl)c3)no2)cn1Cc1ccncc1 | 722 s
43 | CCn1cc(C(=O)Nc2ccc(F)c(C)c2)c2cccnc21 | 896 s
44 | CSc1cccc(N2C(=O)C3N=NN(Cc4nc(-c5ccc(C)c(C)c5)no4)C3C2=O)c1 (stereo unspecified) | 1100 s
45 | COc1ccc(-c2csc(NC(=O)c3sc(COc4ccc(Cl)c(C)c4)nc3C)n2)cc1 | 1320 s

Row | SMILES | RP-LC retention time
46 | CCc1nc2sc(C)nn2c1S(=O)(=O)N1CCOCC1 | 699 s
47 | O=C(Nc1ccccc1F)C1CCCN(S(=O)(=O)c2cc(-c3noc(C4CCC4)n3)cs2)C1 (stereo unspecified) | 1160 s
48 | CC(C)c1noc(-c2ccnc(-n3cnc(C(=O)NCc4ccco4)c3)c2)n1 | 809 s
49 | Cn1c(C(=O)N2CCCC(C(=O)NCCc3ccc(S(N)(=O)=O)cc3)C2)cc2sccc21 (stereo unspecified) | 693 s
50 | CC(=O)c1cccc(NC(=O)c2cnn(-c3ccc(Br)cc3)c2)c1 | 940 s
51 | Cc1nc2ccc(C(=O)NC(C)C)cc2nc1C | 649 s
52 | Cc1ccccc1NC(=O)c1csc(-c2cn(C)c3ncccc23)n1 | 1020 s
53 | CC(C)n1cnnc1CC1CN(C(=O)Nc2cc(F)ccc2F)C1 | 631 s
54 | COc1cc(OC)c(NC(=O)Cn2cc3c(n2)CCC(C)C3)cc1Cl (stereo unspecified) | 999 s
55 | OC(COc1ccc(Br)cc1Br)CN1CCCC1 (stereo unspecified) | 576 s
56 | CCNS(=O)(=O)c1cccnc1Nc1ccccc1 | 904 s
57 | COc1cc2ncnc(Nc3cccc(Cl)c3)c2cc1OC | 750 s
58 | Cc1cc(F)ccc1NS(=O)(=O)c1cc(-c2[nH]ncc2C(=O)N(C)C)oc1C | 697 s
59 | O=C(C1=CN(c2ccc(F)cc2)c2cc(F)ccc2S1(=O)=O)N1CCCCC1 | 858 s
60 | CC(O)CNC(=O)C1CCN(c2ccc(Sc3ccc(C(C)C)cc3)nn2)CC1 (stereo unspecified) | 704 s
61 | CCc1ccc(C(=O)NC2CCN(c3cc(-c4ccc(Cl)cc4)[nH]n3)C2)cc1 (stereo unspecified) | 879 s
62 | CN1CCC2(CC1)CN(S(=O)(=O)N(C)C)CC2C(=O)N1CCc2ccccc21 (stereo unspecified) | 631 s
63 | CCn1cc(-c2ccncc2)cc1C(=O)NCc1cccc(Br)c1 | 705 s
64 | CCCCC(=O)Nc1nc(-c2ccc3c(c2)N(CCC)C(=O)CO3)cs1 | 1010 s
65 | N#Cc1cccc(NC(=O)Cn2cnc3nc4c(cc3c2=O)CCCC4)c1 | 700 s
66 | O=C(NC1CCCCC1)C1CCCN(S(=O)(=O)Cc2ccccc2Cl)C1 (stereo unspecified) | 967 s

Reference: the METLIN SMRT retention time set (Domingo-Almenara et al. 2019)
